Reference: the supplement of paper PMC13380429

Experiments:
Details in all cases: 72 h
Calu-3 [1] = assay: drug sensitivity score (DSS) for viability; higher = more toxic; extreme values may be limits of the assay
Vero E6 [2] = assay: as above
Caco-2 [3] = assay: as above
U2OS [4] = assay: as above
Calu-3 [5] = assay: relative viability EC50 (midpoint between 100% and the lowest measured viability); higher = less toxic
Caco-2 [6] = assay: as above
U2OS [7] = assay: as above
Calu-3 [8] = assay: cell viability relative to DMSO; higher = less toxic
Vero E6 [9] = assay: as above
Caco-2 [10] = assay: as above
U2OS [11] = assay: as above
HepG2 [12] = assay: drug sensitivity score (DSS) for viability; higher = more toxic; extreme values may be limits of the assay
Vero E6 [13] = assay: relative viability EC50 (midpoint between 100% and the lowest measured viability); higher = less toxic
HepG2 [14] = assay: as above
HepG2 [15] = assay: cell viability relative to DMSO; higher = less toxic

Structure (SMILES) | drug sensitivity score (Calu-3 [1]) | drug sensitivity score (Vero E6 [2]) | drug sensitivity score (Caco-2 [3]) | drug sensitivity score (U2OS [4]) | relative viability EC50 (Calu-3 [5]) [µM] | relative viability EC50 (Caco-2 [6]) [µM] | relative viability EC50 (U2OS [7]) [µM] | cell viability (Calu-3 [8]; 1 nM) [%] | cell viability (Calu-3 [8]; 10 nM) [%] | cell viability (Calu-3 [8]; 100 nM) [%] | cell viability (Calu-3 [8]; 1000 nM) [%] | cell viability (Calu-3 [8]; 10000 nM) [%] | cell viability (Vero E6 [9]; 1 nM) [%] | cell viability (Vero E6 [9]; 10 nM) [%] | cell viability (Vero E6 [9]; 100 nM) [%] | cell viability (Vero E6 [9]; 1000 nM) [%] | cell viability (Vero E6 [9]; 10000 nM) [%] | cell viability (Caco-2 [10]; 1 nM) [%] | cell viability (Caco-2 [10]; 10 nM) [%] | cell viability (Caco-2 [10]; 100 nM) [%] | cell viability (Caco-2 [10]; 1000 nM) [%] | cell viability (Caco-2 [10]; 10000 nM) [%] | cell viability (U2OS [11]; 1 nM) [%] | cell viability (U2OS [11]; 10 nM) [%] | cell viability (U2OS [11]; 100 nM) [%] | cell viability (U2OS [11]; 1000 nM) [%] | cell viability (U2OS [11]; 10000 nM) [%] | drug sensitivity score (HepG2 [12]) | relative viability EC50 (Vero E6 [13]) [µM] | relative viability EC50 (HepG2 [14]) [µM] | cell viability (HepG2 [15]; 1 nM) [%] | cell viability (HepG2 [15]; 10 nM) [%] | cell viability (HepG2 [15]; 100 nM) [%] | cell viability (HepG2 [15]; 1000 nM) [%] | cell viability (HepG2 [15]; 10000 nM) [%]
Cc1c(Cn2c(C)nc3c(C(=O)O)cc(N4CCOCC4)cc32)cccc1C(F)(F)F | 0.2 | 3.6 | 0.5 | 0 | > 10 | > 10 | > 10 | 110 | 101 | 97 | 94.4 | 86 | 97.2 | 101 | 93.1 | 84.4 | 58.9 | 102 | 97.3 | 91.2 | 93.1 | 84.9 | 95.7 | 104 | 96.2 | 99 | 91.3 | – | – | – | – | – | – | – | –
N=C(N)NC(=O)c1cnccn1 [pyrazinoylguanidine] | – | 0 | 0 | – | – | > 10 | – | – | – | – | – | – | 99.8 | 106 | 104 | 106 | 99.7 | 107 | 100 | 101 | 99.7 | 101 | – | – | – | – | – | 0 | > 10 | > 10 | 104 | 97.1 | 94.9 | 99.1 | 104
C[C@@H](N)c1ccc(C(=O)Nc2ccnc3[nH]ccc23)cc1 | – | 0.2 | 0 | 1.2 | – | > 10 | – | – | – | – | – | – | 99.1 | 98.5 | 96.6 | 93 | 86.5 | 95.8 | 101 | 110 | 105 | 91.6 | 99.3 | 96.8 | 99 | 98.2 | 75 | 2.8 | > 10 | – | 93.7 | 94.4 | 105 | 89.8 | 68.4
CC(C)(C)[C@H]1CC[C@H](CC2=C(O)C(=O)c3ccccc3C2=O)CC1 [buparvaquone] | 0 | 3.8 | 0.3 | 0 | > 10 | > 10 | > 10 | 91.4 | 104 | 95 | 96.6 | 94 | 102 | 101 | 105 | 82.7 | 65.5 | 94.1 | 101 | 102 | 111 | 81.3 | 97.4 | 100 | 99.3 | 102 | 97.6 | 2.2 | – | – | 99.5 | 104 | 98.9 | 93.9 | 71.1
Cc1ccc2c(c1)Cc1c(C(=O)NC3CCCCC3)nn(-c3ccc(Cl)cc3Cl)c1-2 [GP2a] | – | 0 | 0 | 0 | – | > 10 | > 10 | – | – | – | – | – | 99.5 | 96.2 | 99.8 | 100 | 100 | 91.8 | 89.6 | 97.3 | 95.4 | 91.7 | 95.8 | 99.4 | 97.4 | 105 | 102 | 0 | > 10 | > 10 | 100 | 102 | 99 | 88.9 | 99.7
Nc1ncnc2c1c(-c1ccc(Cl)cc1)nn2-c1cccc(-c2cnnn2Cc2cccc(-c3ccccc3)c2)c1 [KB-SRC-4] | – | 0 | 0 | 0 | – | > 10 | > 10 | – | – | – | – | – | 97.7 | 99.1 | 95.9 | 93.7 | 105 | 99.1 | 94.7 | 99.7 | 93.6 | 101 | 95.2 | 96.5 | 95.5 | 101 | 103 | 0 | > 10 | > 10 | 107 | 98.4 | 99.1 | 99.5 | 111
CC1=NN(c2ccc(C)c(C)c2)C(=O)/C1=N\Nc1cccc(-c2cccc(C(=O)O)c2)c1O [eltrombopag] | 1.5 | 0.8 | 0 | 1.2 | – | > 10 | – | 114 | 102 | 100 | 96.7 | 74.3 | 97.6 | 93.5 | 91.9 | 90.7 | 82.9 | 93.5 | 89.8 | 93.5 | 97.9 | 82.1 | 95.6 | 102 | 100 | 101 | 71.1 | 3.4 | > 10 | 2.71 | 97.4 | 92 | 105 | 96.8 | 44.5
Nc1c(CC(=O)O)cccc1C(=O)c1ccccc1 [amfenac] | – | 0 | 0 | 0 | – | > 10 | > 10 | – | – | – | – | – | 94.1 | 102 | 97.2 | 102 | 102 | 101 | 97.4 | 104 | 94.1 | 97.4 | 101 | 96 | 102 | 97.2 | 104 | 0 | > 10 | > 10 | 103 | 105 | 97.9 | 106 | 101
